Target: T1, BRD2 and DCAF11 (Homo sapiens, UniProt P25440+Q8TEB1)
T1 construct: expressed in transfected cells; host or cells: Hep G2
Test: Co-immunoprecipitation of FLAG-BRD2 and HA-DCAF11 in Hep G2 cells
Type: cell-based
Settings: MG-132 10 μM, 40 min, compound 10 μM
Protocol: Hep G2 cells were seeded in 6-well plates, 24 h later, cells were transiently transfected with HA-DCAF11 (Sino Biological, HG16257-NY) and FLAG-BRD2 for 48 h using the FuGENE® HD transfection reagent (Promega, E2311). […] After determination of the protein concentration, cell lysates were incubated with anti-FLAG magnetic beads (30 μl / sample, Sigma, M8823) at 4 °C for 4 h and washed three times with washing buffer (0.2% NP-40, 25 mM Tris-HCl pH 7.4, 150 mM NaCl). The beads were diluted with PBS, mixed with SDS sample buffer and heated at 95 °C for 10 min, followed by western blot analysis.

T1 sequence (P25440 whole entry): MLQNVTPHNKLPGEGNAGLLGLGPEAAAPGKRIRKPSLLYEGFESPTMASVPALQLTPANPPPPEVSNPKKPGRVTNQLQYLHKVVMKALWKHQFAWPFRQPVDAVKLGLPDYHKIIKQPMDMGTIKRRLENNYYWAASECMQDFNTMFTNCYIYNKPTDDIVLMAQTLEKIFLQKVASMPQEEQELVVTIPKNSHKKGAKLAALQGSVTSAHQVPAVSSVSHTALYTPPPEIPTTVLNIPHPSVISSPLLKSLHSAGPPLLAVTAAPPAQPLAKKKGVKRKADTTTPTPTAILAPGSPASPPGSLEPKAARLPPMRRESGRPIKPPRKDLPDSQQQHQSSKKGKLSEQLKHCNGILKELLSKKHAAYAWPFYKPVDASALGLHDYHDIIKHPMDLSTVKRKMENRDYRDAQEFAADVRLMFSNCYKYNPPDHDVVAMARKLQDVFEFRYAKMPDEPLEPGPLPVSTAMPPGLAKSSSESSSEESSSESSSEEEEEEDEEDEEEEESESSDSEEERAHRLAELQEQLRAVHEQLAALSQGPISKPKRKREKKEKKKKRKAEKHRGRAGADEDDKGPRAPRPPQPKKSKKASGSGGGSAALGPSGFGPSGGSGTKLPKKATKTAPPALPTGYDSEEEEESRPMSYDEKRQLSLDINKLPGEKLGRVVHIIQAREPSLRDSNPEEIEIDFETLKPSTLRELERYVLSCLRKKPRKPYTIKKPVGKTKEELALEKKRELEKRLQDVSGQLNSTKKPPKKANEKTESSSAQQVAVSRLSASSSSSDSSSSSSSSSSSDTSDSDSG
T1 sequence (Q8TEB1 whole entry): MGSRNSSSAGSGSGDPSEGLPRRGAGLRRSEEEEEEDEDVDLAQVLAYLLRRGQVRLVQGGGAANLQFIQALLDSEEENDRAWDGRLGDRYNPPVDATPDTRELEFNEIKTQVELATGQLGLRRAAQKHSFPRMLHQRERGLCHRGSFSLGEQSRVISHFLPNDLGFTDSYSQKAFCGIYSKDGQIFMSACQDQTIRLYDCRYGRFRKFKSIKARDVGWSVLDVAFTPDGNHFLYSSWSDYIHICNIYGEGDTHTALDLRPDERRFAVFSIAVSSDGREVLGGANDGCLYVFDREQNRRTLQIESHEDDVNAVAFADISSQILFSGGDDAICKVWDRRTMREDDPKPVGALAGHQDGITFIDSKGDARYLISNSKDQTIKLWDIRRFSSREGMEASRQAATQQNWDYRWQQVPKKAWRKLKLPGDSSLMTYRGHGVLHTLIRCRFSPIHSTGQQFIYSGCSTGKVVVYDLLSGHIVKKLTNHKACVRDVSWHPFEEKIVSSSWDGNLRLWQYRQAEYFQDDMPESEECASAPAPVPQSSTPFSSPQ

Cc1sc2c(c1C)C(c1ccc(Cl)cc1)=N[C@@H](CC(=O)NCCOCCOCCOCCOCCNC(=O)COc1c(Br)cc(/C=C3\C(=O)Nc4ccc(Br)cc43)cc1Br)c1nnc(C)n1-2 [Compound 9]
complex formation between BRD2 and DCAF11 (co-immunoprecipitation): mediates complex formation between BRD2 and DCAF11

Source: PMC10689823, “Discovery of a Drug-like, Natural Product-Inspired DCAF11 Ligand Chemotype” (Nature Communications, 2023)
